Data set [1] concerns the target melanocortin receptor 4 (MC4R) (Homo sapiens, UniProt P32245). In words: MC4R cAMP assay (Discoverx), agonistic. The class given is cell-based. On the procedure:
(§1) The agonistic activities toward MC1R, MC4R, CRHR2, PTHR1, and OPRK1 were assyed with an MC1R cAMP assay, an MC4R cAMP assay, a CRHR2 cAMP assay, a PTHR1 cAMP assay and an OPRK1 cAMP assay from Discoverx Inc. (Fremont, Calif.), respectively. The antagonistic activities toward bradykinin receptor 2 (BDKRB2) and GnRH receptor (GnRHR or LHRHR) were assayed with a BDKRB2 arrestin assay and a GnRHR calcium flux assay from Discoverx, respectively.
(§2) For the analysis of Gs-coupled cAMP production, cAMP Hunter cell lines were expanded from freezer stocks, and cells were seeded in a total volume of 20 μL into white walled, 384-well microplates and incubated at 37 C for the appropriate time prior to testing. The cAMP modulation was determined using the DiscoverX HitHunter cAMP XS+ assay. For agonistic activity determination, cells were incubated with sample to induce response. Media was aspirated from cells and replaced with 15 μL 2:1 HBSS/10 mM Hepes: cAMP XS+ Ab reagent. […] The compound activity was analyzed using a CBIS data analysis suite (ChemInnovation, CA). For Gs-coupled agonistic assays, percentage activity is calculated using the following formula: % Activity=100%×(mean RLU of test sample−mean RLU of vehicle control)/(mean RLU of MAX control−mean RLU of vehicle control).

The target in data set [2] is T1, bradykinin receptor 2 (BDKRB2) (Homo sapiens, UniProt P30411).
T1 sequence (P30411 1-391): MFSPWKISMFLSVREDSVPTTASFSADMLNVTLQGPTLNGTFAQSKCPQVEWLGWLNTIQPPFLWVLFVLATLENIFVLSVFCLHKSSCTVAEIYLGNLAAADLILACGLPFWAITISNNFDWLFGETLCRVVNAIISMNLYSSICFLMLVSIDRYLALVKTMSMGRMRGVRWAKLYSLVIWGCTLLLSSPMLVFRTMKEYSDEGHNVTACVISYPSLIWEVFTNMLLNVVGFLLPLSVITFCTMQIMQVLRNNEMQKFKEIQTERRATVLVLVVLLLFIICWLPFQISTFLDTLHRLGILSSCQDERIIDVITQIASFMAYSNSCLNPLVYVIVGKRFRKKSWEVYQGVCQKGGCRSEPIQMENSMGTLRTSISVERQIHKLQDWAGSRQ
In words: BDKRB2 arrestin assay (Discoverx), antagonistic. The class given is cell-based.
Method: For the Arrestin assays, PathHunter cell lines (Discoverx Inc.) were expanded from freezer stocks, and seeded in a total volume of 20 μL into white walled, 384-well microplates and incubated at 37 C for the appropriate time prior to testing. […] For antagonistic activity determination, cells were pre-incubated with antagonist followed by agonist challenge at the EC80 concentration. Intermediate dilution of sample stocks was performed to generate 5× sample in assay buffer, and 5 μL of 5× sample was added to cells and incubated at 37° C. or room temperature for 30 minutes. Vehicle concentration was 1%. Then, 5 μL of 6×EC80 agonist in assay buffer was added to the cells and incubated at 37 C or room temperature for 90 or 180 minutes.
Assay signal was generated through a single addition of 12.5 or 15 μL (50% v/v) of PathHunter Detection reagent cocktail, followed by an one hour incubation at room temperature. The microplates were read following signal generation with a PerkinElmer Envision™ instrument for chemiluminescent signal detection. The compound activity was analyzed using a CBIS data analysis suite (ChemInnovation, CA). […] For antagonistic activity assays, percentage inhibition was calculated using the following formula: % Inhibition=100%×(1−(mean RLU of test sample−mean RLU of vehicle control)/(mean RLU of EC80 control−mean RLU of vehicle control)).

A short description of data set [3]: Compound gel-forming ability in water (visual inspection, tube tapping assay, tilted tube assay).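 On all read-outs here: peptides mixed with de-ionized water at about 22-25 °C, judged after 20 min by eye plus tube tapping (10 taps, moves counted) and 90° tilt mobility.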 The settings on record: for gel formation at 11% w/w: 11% w/w in water; for gel formation at 20% w/w: 20% w/w in water. The class given is physicochemical.
For another data set, the target named is T2, PTH receptor 1 (PTHR1) (Homo sapiens, UniProt Q03431).
T2 sequence (Q03431 27-593): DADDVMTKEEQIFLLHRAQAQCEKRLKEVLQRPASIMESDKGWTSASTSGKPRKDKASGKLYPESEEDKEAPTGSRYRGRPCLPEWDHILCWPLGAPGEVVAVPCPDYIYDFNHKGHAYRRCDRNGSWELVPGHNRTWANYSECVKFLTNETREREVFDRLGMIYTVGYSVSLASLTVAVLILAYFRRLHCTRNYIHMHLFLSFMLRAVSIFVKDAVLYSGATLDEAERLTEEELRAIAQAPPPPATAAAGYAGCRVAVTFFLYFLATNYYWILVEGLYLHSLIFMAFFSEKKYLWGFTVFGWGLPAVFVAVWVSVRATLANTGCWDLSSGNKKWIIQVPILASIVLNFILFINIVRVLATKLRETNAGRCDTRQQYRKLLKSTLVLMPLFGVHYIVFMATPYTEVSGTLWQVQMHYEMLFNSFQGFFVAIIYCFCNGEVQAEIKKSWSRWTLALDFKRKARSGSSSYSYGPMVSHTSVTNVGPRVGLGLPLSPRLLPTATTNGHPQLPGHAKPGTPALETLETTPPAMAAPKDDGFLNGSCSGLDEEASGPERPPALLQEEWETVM
In words: PTHR1 cAMP assay (Discoverx), agonistic. The class given is cell-based. Here is the method:
as §1, §2
A general note: Changes in cAMP serve as a functional read-out for many G protein-coupled receptors.

For another data set, the target named is T3, CRH receptor 2 (CRHR2) (Homo sapiens, UniProt Q13324).
T3 sequence (Q13324 1-411): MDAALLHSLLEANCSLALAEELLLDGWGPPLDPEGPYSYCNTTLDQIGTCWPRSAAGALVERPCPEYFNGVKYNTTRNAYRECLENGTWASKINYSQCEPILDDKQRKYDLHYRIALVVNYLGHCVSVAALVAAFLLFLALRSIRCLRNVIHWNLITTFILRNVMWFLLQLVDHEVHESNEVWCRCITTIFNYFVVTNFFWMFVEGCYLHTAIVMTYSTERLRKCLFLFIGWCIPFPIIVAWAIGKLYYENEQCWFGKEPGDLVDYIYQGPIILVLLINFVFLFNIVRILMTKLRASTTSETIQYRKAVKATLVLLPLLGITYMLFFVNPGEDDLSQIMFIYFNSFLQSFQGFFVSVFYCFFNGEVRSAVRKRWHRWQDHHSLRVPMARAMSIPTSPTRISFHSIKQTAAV
In words: CRHR2 cAMP assay (Discoverx), agonistic. It counts as cell-based. Here is the method:
as §1
For the analysis of Gs-coupled cAMP production, cAMP Hunter cell lines were expanded from freezer stocks, and cells were seeded in a total volume of 20 μL into white walled, 384-well microplates and incubated at 37 C for the appropriate time prior to testing. The cAMP modulation was determined using the DiscoverX HitHunter cAMP XS+ assay. For agonistic activity determination, cells were incubated with sample to induce response. Media was aspirated from cells and replaced with 15 μL 2:1 HBSS/10 mM Hepes: cAMP XS+ Ab reagent. Intermediate dilution of sample stocks was performed to generate 4× sample in assay buffer, and 5 μL of 4× sample was added to cells and incubated at 37 C or room temperature for 30 or 60 minutes. Vehicle concentration was 1%. The compound activity was analyzed using a CBIS data analysis suite (ChemInnovation, CA). For Gs-coupled agonistic assays, percentage activity is calculated using the following formula: % Activity=100%×(mean RLU of test sample−mean RLU of vehicle control)/(mean RLU of MAX control−mean RLU of vehicle control).

A word on the pIC50: it is the negative decadic logarithm of the IC50, by convention in mol/L. A lower pIC50 goes with a high IC50.

pIC50: −log10 of the molar value. Where a SMILES comes first, the peptide text is derived from it. Bridges are numbered along the chain shown (N, C = ends). [ ]: non-standard residue; d: D form. The star is where a group is joined. Palmitoyl = CCCCCCCCCCCCCCCC(=O)*; AEEA = NCCOCCOCC(=O)O

Chain of melanocortin receptor 4 (MC4R) (P32245 whole entry): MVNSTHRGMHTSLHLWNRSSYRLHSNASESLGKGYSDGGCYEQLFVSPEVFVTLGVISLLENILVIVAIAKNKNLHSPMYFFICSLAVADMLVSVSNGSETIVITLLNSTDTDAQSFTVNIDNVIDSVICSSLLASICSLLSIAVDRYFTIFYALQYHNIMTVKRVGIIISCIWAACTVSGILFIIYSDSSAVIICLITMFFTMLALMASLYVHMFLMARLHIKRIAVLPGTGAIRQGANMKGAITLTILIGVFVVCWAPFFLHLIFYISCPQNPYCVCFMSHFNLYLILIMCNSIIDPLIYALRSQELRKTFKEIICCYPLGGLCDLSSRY

In the case of `CCCCCCCCCCCCCCCC(=O)N[C@@H](Cc1c[nH]cn1)C(=O)N[C@@H](CO)C(=O)N[C@@H](Cc1ccc(O)cc1)C(=O)N[C@@H](CCCNC(=N)N)C(=O)N[C@H]1CSSC[C@@H](C(N)=O)NC(=O)[C@H](Cc2c[nH]c3ccccc23)NC(=O)[C@H](CCCNC(=N)N)NC(=O)[C@@H](Cc2ccccc2)NC(=O)[C@H](Cc2c[nH]cn2)NC(=O)[C@@H](C)NC1=O` [SEQ ID NO:228, Pal-HSYRC-(D-Ala)-H-(D-Phe)-RWC-NH2] (Palmitoyl-HSYRC[dA]H[dF]RWC-NH2; disulfide 5-11 (inferred)), the “Max Activity % of positive control” value in data set [1] was 115 % of positive control.

For the molecule `N=C(N)NCCC[C@@H](N)C(=O)N[C@@H](CCCNC(=N)N)C(=O)N1CCC[C@H]1C(=O)N1C[C@H](O)C[C@H]1C(=O)NCC(=O)N[C@@H](Cc1cccs1)C(=O)N[C@@H](CO)C(=O)N1Cc2ccccc2C[C@@H]1C(=O)N1[C@H](C(=O)N[C@@H](CCCNC(=N)N)C(=O)O)C[C@@H]2CCCC[C@@H]21` [SEQ ID NO:32, (D-Arg)-Arg-Pro-Hyp-Gly-Thi-Ser-(D-Tic)-Oic-Arg, reference compound], in data set [2], the “Max Activity % of positive control” value was 100 % of positive control. In data set [3], the “gel formation at 11% w/w” value was “does not form gel” and the “gel formation at 20% w/w” value is given as “does not form gel”. The “gel formation at 30% w/w” value in data set [3] (30% w/w in water) is “does not form gel”. Also, the “Physical property at 11% w/w” value in data set [3] (Table 1, 11% w/w in aqueous solution, room temperature) is listed as “AS/IS”. Further, in data set [3] (Table 3, 11% w/w), the “gel formation in aqueous solution, 11%” value is recorded as “AS/IS (AS/IS for aqueous solution or insoluble)”. Moreover, the “gel formation in aqueous solution, 20%” value in data set [3] (Table 3, 20% w/w) is given as “AS/IS (AS/IS for aqueous solution or insoluble)”. For the same molecule, the “gel formation in aqueous solution, 30%” value in data set [3] (Table 3, 30% w/w) is on record as “AS/IS (AS/IS for aqueous solution or insoluble)”. Further, in data set [3] (Table 5, 11% w/w), the “propensity to form gels, wild-type counterparts, 11%” value was “AS/IS”. In data set [3] (Table 5, 20% w/w), the “propensity to form gels, wild-type counterparts, 20%” value is “AS/IS”.

For `CCCCCCCCCCCCCCCC(=O)N[C@@H](Cc1c[nH]cn1)C(=O)N[C@@H](CO)C(=O)N[C@@H](Cc1ccc(O)cc1)C(=O)N[C@@H](CO)C(=O)N[C@@H](CCC(=O)O)C(=O)N[C@H](C(=O)N[C@@H](CCC(N)=O)C(=O)N[C@@H](CC(C)C)C(=O)N[C@@H](CCSC)C(=O)N[C@@H](Cc1c[nH]cn1)C(=O)N[C@@H](CC(N)=O)C(=O)N[C@@H](CC(C)C)C(=O)NCC(=O)N[C@@H](CCCCN)C(=O)N[C@@H](Cc1c[nH]cn1)C(=O)N[C@@H](CC(C)C)C(=O)N[C@@H](CC(N)=O)C(=O)N[C@@H](CO)C(=O)N[C@@H](CCSC)C(=O)N[C@@H](CCC(=O)O)C(=O)N[C@@H](CCCNC(=N)N)C(=O)N[C@H](C(=O)N[C@@H](CCC(=O)O)C(=O)N[C@@H](Cc1c[nH]c2ccccc12)C(=O)N[C@@H](CC(C)C)C(=O)N[C@@H](CCCNC(=N)N)C(=O)N[C@@H](CCCCN)C(=O)N[C@@H](CCCCN)C(=O)N[C@@H](CC(C)C)C(=O)N[C@@H](CCC(N)=O)C(=O)N[C@@H](CC(=O)O)C(=O)N[C@H](C(=O)N[C@@H](Cc1c[nH]cn1)C(=O)N[C@@H](CC(N)=O)C(=O)N[C@@H](Cc1ccccc1)C(=O)O)C(C)C)C(C)C)[C@@H](C)CC` [SEQ ID NO:232] (Palmitoyl-HSYSEIQLMHNLGKHLNSMERVEWLRKKLQDVHNF-OH; C-terminus assumed), the “Max Activity % of positive control” value at PTH receptor 1 (PTHR1) was 59 % of positive control. Also, in data set [3], the “gel formation at 11% w/w” value is “liquid gel” and the “gel formation at 20% w/w” value is on record as “semisolid gel”. The “gel formation in aqueous solution, 20%” value in data set [3] (Table 3, 20% w/w) is “SS (SS for semisolid gel)”. For the same molecule, the “propensity to form gels, chimeric or mutated polypeptides, 20%” value in data set [3] (Table 5, 20% w/w) is reported as “SS (An ability to form semisolid gel is represented by an SS)”.

Consider PTH (1-34) [reference compound], for which the “Max Activity % of positive control” value on PTH receptor 1 (PTHR1) is recorded as 101 % of positive control.

As for “Palmitoyl-SSPHSY[AEEA]IVLSLDVPIGLLQILLEQARARAAREQATTNARILARVGHC-NH2 [SEQ ID NO:230]”, the “Max Activity % of positive control” value at CRH receptor 2 (CRHR2) is 100 % of positive control. For the same molecule, the “gel formation at 20% w/w” value in data set [3] is on record as “semisolid or liquid gel”. In addition, the “gel formation in aqueous solution, 11%” value in data set [3] (Table 3, 11% w/w) is given as “AS/IS (AS/IS for aqueous solution or insoluble)”. In addition, the “gel formation in aqueous solution, 20%” value in data set [3] (Table 3, 20% w/w) is “SS (SS for semisolid gel)”. Besides, the “propensity to form gels, chimeric or mutated polypeptides, 11%” value in data set [3] (Table 5, 11% w/w) is “AS/IS”. In data set [3] (Table 5, 20% w/w), the “propensity to form gels, chimeric or mutated polypeptides, 20%” value is “SS (An ability to form semisolid gel is represented by an SS)”.

Consider `CCCCCCCCCCCCCCCC(=O)N[C@@H](Cc1c[nH]cn1)C(=O)N[C@@H](CO)C(=O)N[C@@H](Cc1ccc(O)cc1)C(=O)N[C@H](CCCNC(=N)N)C(=O)N[C@@H](CCCNC(=N)N)C(=O)N1CCC[C@H]1C(=O)N1C[C@H](O)C[C@H]1C(=O)NCC(=O)N[C@@H](Cc1cccs1)C(=O)N[C@@H](CO)C(=O)N1Cc2ccccc2C[C@@H]1C(=O)N1[C@H](C(=O)N[C@@H](CCCNC(=N)N)C(N)=O)C[C@@H]2CCCC[C@@H]21` [SEQ ID NO:234, Pal-HSY-(D-Arg)-Arg-Pro-Hyp-Gly-Thi-Ser-(D-Tic)-Oic-Arg-NH2], for which the “Max Activity % of positive control” value in data set [2] was 112 % of positive control. In data set [2] (bradykinin-stimulated), this molecule showed a negative-log IC50 (pIC50) of 7.27. Besides, the “gel formation at 20% w/w” value in data set [3] is recorded as “semisolid gel”. The “gel formation in aqueous solution, 6%” value in data set [3] (Table 3, 6% w/w) is reported as “AS/IS (AS/IS for aqueous solution or insoluble)”. The “gel formation in aqueous solution, 11%” value in data set [3] (Table 3, 11% w/w) is on record as “AS/IS (AS/IS for aqueous solution or insoluble)”. Also, the “gel formation in aqueous solution, 20%” value in data set [3] (Table 3, 20% w/w) is recorded as “SS (SS for semisolid gel)”. For the same molecule, in data set [3] (Table 5, 6% w/w), the “propensity to form gels, chimeric or mutated polypeptides, 6%” value was “AS/IS”. For the same molecule, the “propensity to form gels, chimeric or mutated polypeptides, 11%” value in data set [3] (Table 5, 11% w/w) is given as “AS/IS”. The “propensity to form gels, chimeric or mutated polypeptides, 20%” value in data set [3] (Table 5, 20% w/w) is listed as “SS (An ability to form semisolid gel is represented by an SS)”.

Values taken from patent publication US20200405868A1, “GEL-FORMING POLYPEPTIDES” (priority 2018, published 2020).
